Square brackets hold non-standard residues; d marks the D form. Peptide text beside a SMILES is read from it.

The target of data set [1] is T1, GST-Mcl-1 (Homo sapiens, UniProt Q07820). Nature of the data set: FP binding affinity of fluorescein-labeled peptides, Mcl-1. The settings on record: FP assay, fluorescein-labeled peptide.
A further data set addresses GST-Bcl-xL (Homo sapiens, UniProt Q07817). Nature of the data set: FP binding affinity of fluorescein-labeled peptides, Bcl-xL. The conditions noted are these: FP assay, fluorescein-labeled peptide; read-out: GST-Bcl-xL Kd.
Data set [2] deals with T2, chymotrypsin (Bos taurus, UniProt P00766). Nature of the data set: in vitro. The conditions noted are these: cattle (bovine), pH 8.
Description: (§1) Proteolytic stability of the linear and stapled Noxa peptides against trypsin (Type IX-S, 13,000-20,000 unit/mg, Sigma) and chymotrypsin (Type II, 40 unit/mg, Sigma). To a solution of 400 μL of 0.25 mM peptide in NH4HCO3 buffer, pH 8.0, was added 80 μL trypsin (5 μg/mL) or chymotrypsin (25 μg/mL), and the resulting solution was incubated at 37° C. At the indicated times, 40 μL of the solution was transferred to 40 μL trifluoroacetic acid to quench the reaction. The samples were analyzed by reverse-phase HPLC using benzophenone as an injection control.
The target in data set [3] is T3, trypsin (Sus scrofa, UniProt P00761). Description: in vitro. The conditions noted are these: pig (porcine), pH 8.
T3 sequence (P00761 9-231): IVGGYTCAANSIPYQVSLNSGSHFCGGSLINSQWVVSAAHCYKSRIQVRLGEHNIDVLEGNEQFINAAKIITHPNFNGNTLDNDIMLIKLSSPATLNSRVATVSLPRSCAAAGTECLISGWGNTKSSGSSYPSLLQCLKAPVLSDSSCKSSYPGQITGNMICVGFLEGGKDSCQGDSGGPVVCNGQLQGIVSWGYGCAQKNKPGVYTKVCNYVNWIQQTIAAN
Description: as §1
Data set [4] deals with T4, full-length human MDM2 (GST-MDM2) (Homo sapiens, UniProt Q00987).
T4 construct: GST-MDM2 and GST-MDMX containing full-length human MDM2 and MDMX; made in house; host or cells: Escherichia coli
T4 sequence (Q00987 whole entry): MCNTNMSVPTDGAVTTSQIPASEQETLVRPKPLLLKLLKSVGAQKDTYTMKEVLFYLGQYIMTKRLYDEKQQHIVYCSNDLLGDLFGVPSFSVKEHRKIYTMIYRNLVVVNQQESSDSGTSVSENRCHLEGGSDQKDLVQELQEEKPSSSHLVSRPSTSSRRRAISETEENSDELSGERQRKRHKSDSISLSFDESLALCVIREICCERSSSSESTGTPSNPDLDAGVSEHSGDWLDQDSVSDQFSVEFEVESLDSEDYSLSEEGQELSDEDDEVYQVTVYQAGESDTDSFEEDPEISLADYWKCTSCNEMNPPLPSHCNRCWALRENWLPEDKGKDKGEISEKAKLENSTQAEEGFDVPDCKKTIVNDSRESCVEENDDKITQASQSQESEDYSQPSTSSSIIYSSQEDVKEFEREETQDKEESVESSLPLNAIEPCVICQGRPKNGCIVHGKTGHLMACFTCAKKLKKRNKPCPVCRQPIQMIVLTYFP
Description: ELISA, inhibition of p53-MDM2 interaction. In kind it is binding. The conditions noted are these: relative to comparator linear peptide. An excerpt:
FIG. 10. ELISA data of the cross-linked PDI analogs. The experiments were repeated three times and the resulting data were plotted with GraphPad Prism 5.0 to derive the average IC50 values along with standard deviations.
ELISA Assay. GST-MDM2 and GST-MDMX containing full-length human MDM2 and MDMX and His6-tagged human p53 were expressed in Escherichia coli and purified by glutathione agarose and Ni^2+-nitrilotriacetic acid beads, respectively, under non-denaturing conditions. Microtiter plates were coated with 2.5 μg/ml His6-p53 in PBS buffer for 16 hours. After washing with PBS containing 0.1% Tween-20 (PBST), the plates were blocked with PBST containing 5% nonfat dry milk (PBSTM) for 30 minutes. Peptides were dissolved in DMSO. GST-MDM2 and MDMX (5 μg/ml) were mixed with peptides in PBSMT containing 10% glycerol and 10 mM dithiolthreitol prior to their additions to the wells at the specified concentrations. The incubation was allowed to proceed for 1 hour at room temperature before the plates were washed with PBST. […] The plates were developed by incubation with TMB peroxidase substrate (KPL, Gaithersburg, Md.) and measured by absorbance at 450 nm. The data was analyzed with the Origin 6.0 software. […]

A short description of the next data set: Water solubility. In kind it is physicochemical.
The nature of data set [5]: Circular dichroism, percent helicity. The settings on record: compared to the linear NoxaBH3 peptide, 50 μM in 20% ACN/H2O. It counts as physicochemical. On the procedure: FIG. 12. […] The peptides were dissolved in 20% ACN/H2O for a final concentration of 50 μM.
Circular Dichroism Study. […] The spectra were recorded in the wavelength range of 190-250 nm and averaged over 3 scans with a resolution of 0.5 nm, a bandwidth of 1.0 nm and a response time of 4 s. The sensitivity and the speed of the spectrometer were set to 100 mdeg and 50 nm/min, respectively. All peptides were dissolved in 20% acetonitrile/H2O to reach final concentration of 50 μM.
A general note: Circular dichroism is widely used to follow secondary structure.

Data set [6] has as its target T1, GST-Mcl-1. Description: Competitive fluorescence polarization assay. It counts as binding. The conditions noted are these: Noxa peptides, three repeats ± SD; read-out: FP, IC50. On the procedure:
Competitive Florescence Polarization Assay. The binding affinity of the Noxa peptides toward GST-Mcl-1 was determined in a competitive fluorescence polarization assay with the fluorescein-labeled Bak or Bim. Briefly, fluorescein-labeled Bak was incubated with GST-Mcl-1 in a binding buffer (PBS, 0.005% Tween-20, pH7.4) at room temperature in a 96-well microtiter plate. […] The reading was repeated at various time points to ensure that the competition has reached equilibrium.

Data set [7] deals with Mcl-1 (Homo sapiens, UniProt Q07820). Nature of the data set: ELISA of cross-linked Noxa peptides. In kind it is binding. On the technique in general: An ELISA detects its analyte on a solid surface through an enzyme-linked reagent.
Mcl-1 (Homo sapiens, UniProt Q07820), sequence (Q07820 whole entry, species assumed): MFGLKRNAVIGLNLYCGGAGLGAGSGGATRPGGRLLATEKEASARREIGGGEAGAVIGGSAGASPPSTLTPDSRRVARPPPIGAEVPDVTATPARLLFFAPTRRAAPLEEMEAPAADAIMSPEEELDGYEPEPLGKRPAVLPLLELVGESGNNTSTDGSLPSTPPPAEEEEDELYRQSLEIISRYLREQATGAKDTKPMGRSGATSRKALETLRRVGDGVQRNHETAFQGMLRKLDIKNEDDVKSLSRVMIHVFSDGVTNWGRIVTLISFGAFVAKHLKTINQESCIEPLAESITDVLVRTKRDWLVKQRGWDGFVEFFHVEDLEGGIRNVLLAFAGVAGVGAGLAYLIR
The target in data set [8] is T3, trypsin. Nature of the data set: Trypsin-mediated proteolytic stability assay.
Description: as §1
For data set [9], the target named is T2, chymotrypsin. Nature of the data set: Chymotrypsin proteolytic stability assay.
Description: as §1
The next data set deals with T5, Bcl-w (Homo sapiens, UniProt Q92843).
T5 sequence (Q92843 1-193): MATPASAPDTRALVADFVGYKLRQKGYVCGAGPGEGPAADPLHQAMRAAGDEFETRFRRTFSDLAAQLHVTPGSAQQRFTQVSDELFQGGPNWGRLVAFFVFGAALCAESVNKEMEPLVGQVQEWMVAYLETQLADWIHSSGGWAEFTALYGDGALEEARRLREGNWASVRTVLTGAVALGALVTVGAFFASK
The conditions noted are these: background literature; read-out: IC50 against Bcl-w; cited from earlier work.

The next data set relates to Bfl-1/A1. The settings on record: background literature; read-out: IC50 against Bfl-1/A1; cited from earlier work.
A further data set deals with Bcl-2 (Homo sapiens, UniProt P10415). The settings on record: background literature; read-out: IC50 against Bcl-2; cited from earlier work.
Bcl-2, sequence (P10415 whole entry, species assumed): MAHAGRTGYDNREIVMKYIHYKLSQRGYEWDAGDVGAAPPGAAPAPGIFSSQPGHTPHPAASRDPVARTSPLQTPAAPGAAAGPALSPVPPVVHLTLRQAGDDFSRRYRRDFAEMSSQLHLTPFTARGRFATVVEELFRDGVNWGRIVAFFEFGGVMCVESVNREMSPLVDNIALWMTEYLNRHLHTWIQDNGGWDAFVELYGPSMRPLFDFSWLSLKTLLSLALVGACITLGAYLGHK
The next data set deals with Bcl-xL (Homo sapiens, UniProt Q07817). The conditions noted are these: background literature; read-out: IC50 against Bcl-xL; cited from earlier work.
Bcl-xL, sequence (Q07817 whole entry, species assumed): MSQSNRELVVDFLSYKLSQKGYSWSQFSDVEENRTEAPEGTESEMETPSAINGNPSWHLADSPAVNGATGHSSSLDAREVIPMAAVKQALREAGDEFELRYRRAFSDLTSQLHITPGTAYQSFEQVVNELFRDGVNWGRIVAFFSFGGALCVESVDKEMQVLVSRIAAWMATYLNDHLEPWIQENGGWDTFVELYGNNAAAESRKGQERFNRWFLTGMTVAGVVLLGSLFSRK
The target in data set [10] is Mcl-1 (Mus musculus, UniProt P97287). The settings on record: background literature; read-out: IC50 against Mcl-1; cited from earlier work.
Mcl-1 (Mus musculus, UniProt P97287), sequence (P97287 152-308 limits assumed): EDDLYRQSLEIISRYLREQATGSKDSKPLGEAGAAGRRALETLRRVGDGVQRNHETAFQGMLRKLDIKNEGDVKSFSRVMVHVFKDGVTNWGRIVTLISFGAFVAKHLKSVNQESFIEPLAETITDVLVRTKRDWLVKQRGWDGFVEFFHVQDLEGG

T1 sequence (Q07820 whole entry): as the sequence (Q07820 whole entry, species assumed) above
GST-Bcl-xL, sequence (Q07817 whole entry): as the sequence (Q07817 whole entry, species assumed) above

In the case of `CC[C@H](C)[C@@H]1NC(=O)[C@H](CCCNC(=N)N)NC(=O)[C@H](CCCNC(=N)N)NC(=O)[C@H](CC(C)C)NC(=O)[C@@H](NC(=O)[C@H](C)NC(=O)[C@H](C)NC(=O)CCCCCNC(=S)Nc2ccc3c(c2)C(=O)OC32c3ccc(O)cc3Oc3cc(O)ccc32)CSCc2ccc(cc2)-c2ccc(cc2)CSC[C@@H](C(=O)N[C@H](C(=O)N[C@@H](CC(N)=O)C(=O)N[C@@H](CC(C)C)C(=O)N[C@@H](CCCNC(=N)N)C(=O)N[C@@H](CCC(N)=O)C(=O)N[C@@H](CCCCN)C(=O)N[C@@H](CC(C)C)C(=O)N[C@@H](CC(C)C)C(=O)N[C@@H](CC(N)=O)C(N)=O)C(C)C)NC(=O)[C@H](CC(=O)O)NC(=O)CNC1=O` [Fl-5a], the Kd (in general, the free concentration of one partner at which half of the binding sites on the other are occupied at equilibrium, for simple one-to-one binding) at GST-Mcl-1 [1] was 0.8 ± 0.1 nM; at GST-Bcl-xL it was over 2000 nM.

Consider `CC[C@H](C)[C@@H]1NC(=O)[C@H](CCCNC(=N)N)NC(=O)[C@H](CCCNC(=N)N)NC(=O)[C@H](CC(C)C)NC(=O)[C@H](NC(=O)[C@H](C)NC(=O)[C@H](C)NC(=O)CCCCCNC(=S)Nc2ccc3c(c2)C(=O)OC32c3ccc(O)cc3Oc3cc(O)ccc32)CSCc2ccc(cc2)-c2ccc(cc2)CSC[C@@H](C(=O)N[C@H](C(=O)N[C@@H](CC(N)=O)C(=O)N[C@@H](CC(C)C)C(=O)N[C@@H](CCCNC(=N)N)C(=O)N[C@@H](CCC(N)=O)C(=O)N[C@@H](CCCCN)C(=O)N[C@@H](CC(C)C)C(=O)N[C@@H](CC(C)C)C(=O)N[C@@H](CC(N)=O)C(N)=O)C(C)C)NC(=O)[C@H](CC(=O)O)NC(=O)CNC1=O` [Fl-6a], for which the Kd on GST-Mcl-1 [1] was 0.7 ± 0.1 nM; on GST-Bcl-xL, over 2000 nM.

As for `CC[C@H](C)[C@H](NC(=O)[C@H](CCCNC(=N)N)NC(=O)[C@H](CCCNC(=N)N)NC(=O)[C@H](CC(C)C)NC(=O)[C@H](CCC(N)=O)NC(=O)[C@H](C)NC(=O)[C@H](C)NC(C)=O)C(=O)NCC(=O)N[C@@H](CC(=O)O)C(=O)N[C@@H](CCCCN)C(=O)N[C@H](C(=O)N[C@@H](CC(N)=O)C(=O)N[C@@H](CC(C)C)C(=O)N[C@@H](CCCNC(=N)N)C(=O)N[C@@H](CCC(N)=O)C(=O)N[C@@H](CCCCN)C(=O)N[C@@H](CC(C)C)C(=O)N[C@@H](CC(C)C)C(=O)N[C@@H](CC(N)=O)C(N)=O)C(C)C` [NoxaB^75-93-C75A], the figures for the half-life at 0.208 mM on chymotrypsin [2] and at trypsin [3] were 3.3 min and 1.8 min, respectively.

As for `CC(=O)N[C@@H](CC(C)C)C(=O)N[C@H](C(=O)N[C@@H](Cc1ccccc1)C(=O)N[C@H](CS)C(=O)N[C@@H](Cc1c[nH]cn1)C(=O)N[C@@H](Cc1ccc(O)cc1)C(=O)N[C@@H](Cc1c[nH]c2ccccc12)C(=O)N[C@@H](C)C(=O)N[C@@H](CCC(N)=O)C(=O)N[C@@H](CC(C)C)C(=O)N[C@@H](CS)C(=O)N[C@@H](CO)C(N)=O)[C@@H](C)O` [Peptide 3] (Ac-LTF[dC]HYWAQLCS-NH2; C-terminus assumed), in data set [4], the “increase in MDM2 activity” value is recorded as “more than 3 fold”.

On to `CC[C@H](C)[C@@H]1NC(=O)[C@H](CCCNC(=N)N)NC(=O)[C@H](CCCNC(=N)N)NC(=O)[C@H](CC(C)C)NC(=O)[C@H](NC(=O)[C@H](C)NC(=O)[C@H](C)NC(C)=O)CSCc2ccc(cn2)-c2ccc(nc2)CSC[C@@H](C(=O)N[C@H](C(=O)N[C@@H](CC(N)=O)C(=O)N[C@@H](CC(C)C)C(=O)N[C@@H](CCCNC(=N)N)C(=O)N[C@@H](CCC(N)=O)C(=O)N[C@@H](CCCCN)C(=O)N[C@@H](CC(C)C)C(=O)N[C@@H](CC(C)C)C(=O)N[C@@H](CC(N)=O)C(N)=O)C(C)C)NC(=O)[C@H](CC(=O)O)NC(=O)CNC1=O` [Peptide 6b], for which the water solubility entry in the data set “Water solubility” is “better water solubility”. Further, in [5], the “enhancement in percent helicity” value is “roughly 2 fold”. The IC50 amounted to 140 ± 43 nM on GST-Mcl-1 [6] and 140 nM at Mcl-1 [7]. At trypsin [8], the “times more stable against trypsin than parent linear peptide” value was over 6 times. Also, the half-life (commonly the time needed for the level to fall by half in the phase considered) at 0.208 mM on trypsin [8] (pig (porcine), trypsin (Type IX-S, Sigma) in NH4HCO3 buffer, pH 8) is 11.5 min; at chymotrypsin [9] (cattle (bovine), chymotrypsin (Type II, Sigma) in NH4HCO3 buffer, pH 8), 54 min. The “times more stable against chymotrypsin than parent linear peptide” value on chymotrypsin [9] was over 16 times.

As for “NoxaBH3-(18-43): human Noxa BH3 peptide, residues 18-43 (PAELEVECATQLRRFGDKLNFRQKLL; UniProt Q13794 18-43, looked up, fragment)”, the IC50 was over 100000 nM in the data set with Bcl-w; 180 nM with Bfl-1/A1; over 100000 nM with Bcl-2; over 100000 nM with Bcl-xL; 24 nM with Mcl-1 [10].

The values above are taken from patent US9029332B2, “Cross-linked peptides and proteins, methods of making same, and uses thereof” (The Research Foundation for The State University of New York, priority 2010, dated 2015).
